Key:
Assay in all cases: relative viability (nuclei count vs DMSO), 5 days (fraction); higher = more cells survive
A-427 = tested on: A-427
Summary of the method: (§1)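 Lung cancer cell lines in 1536-well plates got either a single drug or a fixed anchor-drug dose together with five library-drug doses (not always all listed) in √10 steps, by pin tool, on the day after seeding. Nuclei were counted after 5 days, and relative viability is the treated-to-vehicle ratio of nuclei counts. Values are medians of duplicate plates.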

ABC-1 = tested on: ABC-1
Summary of the method: as §1

COR-L23 = tested on: COR-L23
Summary of the method: as §1

EMC-BAC-2 = tested on: EMC-BAC-2
Summary of the method: as §1

HARA = tested on: HARA
Summary of the method: as §1

HOP-62 = tested on: HOP-62
Summary of the method: as §1

LK-2 = tested on: LK-2
Summary of the method: as §1

LXF-289 = tested on: LXF-289
Summary of the method: as §1

NCI-H1792 = tested on: NCI-H1792
Summary of the method: as §1

NCI-H1793 = tested on: NCI-H1793
Summary of the method: as §1

NCI-H1944 = tested on: NCI-H1944
Summary of the method: as §1

NCI-H1993 = tested on: NCI-H1993
Summary of the method: as §1

NCI-H2009 = tested on: NCI-H2009
Summary of the method: as §1

NCI-H2170 = tested on: NCI-H2170
Summary of the method: as §1

NCI-H2228 = tested on: NCI-H2228
Summary of the method: as §1

NCI-H3122 = tested on: NCI-H3122
Summary of the method: as §1

NCI-H596 = tested on: NCI-H596
Summary of the method: as §1

NCI-H727 = tested on: NCI-H727
Summary of the method: as §1

PC-3 [JPC-3] = tested on: PC-3 [JPC-3]
Summary of the method: as §1

SK-LU-1 = tested on: SK-LU-1
Summary of the method: as §1

SK-MES-1 = tested on: SK-MES-1
Summary of the method: as §1

SW 1573 = tested on: SW 1573
Summary of the method: as §1

SW 900 = tested on: SW 900
Summary of the method: as §1

SMILES: O=C(O)c1ccc(-c2c[nH]c3ncc(-c4ccccc4)cc23)cc1C1CCCC1 + O=C(c1cc(Cc2n[nH]c(=O)c3ccccc23)ccc1F)N1CCN(C(=O)C2CC2)CC1 [Olaparib] (partner 8 µM)
- relative viability (A-427; first compound 0.04 µM): 0.706
- relative viability (A-427; first compound 0.1265 µM): 0.845
- relative viability (A-427; first compound 0.4 µM): 0.644
- relative viability (A-427; first compound 1.265 µM): 0.573
- relative viability (ABC-1; first compound 0.04 µM): 1.03
- relative viability (ABC-1; first compound 0.1265 µM): 0.726
- relative viability (ABC-1; first compound 0.4 µM): 0.611
- relative viability (ABC-1; first compound 1.265 µM): 1.1
- relative viability (COR-L23; first compound 0.04 µM): 0.311
- relative viability (COR-L23; first compound 0.1265 µM): 0.353
- relative viability (COR-L23; first compound 0.4 µM): 0.279
- relative viability (COR-L23; first compound 1.265 µM): 0.258
- relative viability (EMC-BAC-2; first compound 0.04 µM): 0.453
- relative viability (EMC-BAC-2; first compound 0.1265 µM): 0.506
- relative viability (EMC-BAC-2; first compound 0.4 µM): 0.429
- relative viability (EMC-BAC-2; first compound 1.265 µM): 0.368
- relative viability (HARA; first compound 0.04 µM): 0.878
- relative viability (HARA; first compound 0.1265 µM): 0.678
- relative viability (HARA; first compound 0.4 µM): 0.886
- relative viability (HARA; first compound 1.265 µM): 0.329
- relative viability (HOP-62; first compound 0.04 µM): 0.352
- relative viability (HOP-62; first compound 0.1265 µM): 0.448
- relative viability (HOP-62; first compound 0.4 µM): 0.356
- relative viability (HOP-62; first compound 1.265 µM): 0.382
- relative viability (LK-2; first compound 0.04 µM): 0.734
- relative viability (LK-2; first compound 0.1265 µM): 0.641
- relative viability (LK-2; first compound 0.4 µM): 0.636
- relative viability (LK-2; first compound 1.265 µM): 0.648
- relative viability (LXF-289; first compound 0.04 µM): 1.07
- relative viability (LXF-289; first compound 0.1265 µM): 0.935
- relative viability (LXF-289; first compound 0.4 µM): 0.709
- relative viability (LXF-289; first compound 1.265 µM): 0.507
- relative viability (NCI-H1792; first compound 0.04 µM): 0.422
- relative viability (NCI-H1792; first compound 0.1265 µM): 0.655
- relative viability (NCI-H1792; first compound 0.4 µM): 0.446
- relative viability (NCI-H1792; first compound 1.265 µM): 0.405
- relative viability (NCI-H1793; first compound 0.04 µM): 0.878
- relative viability (NCI-H1793; first compound 0.1265 µM): 1.03
- relative viability (NCI-H1793; first compound 0.4 µM): 0.963
- relative viability (NCI-H1793; first compound 1.265 µM): 0.512
- relative viability (NCI-H1944; first compound 0.04 µM): 0.421
- relative viability (NCI-H1944; first compound 0.1265 µM): 0.444
- relative viability (NCI-H1944; first compound 0.4 µM): 0.412
- relative viability (NCI-H1944; first compound 1.265 µM): 0.36
- relative viability (NCI-H1993; first compound 0.04 µM): 0.902
- relative viability (NCI-H1993; first compound 0.1265 µM): 1.19
- relative viability (NCI-H1993; first compound 0.4 µM): 1.04
- relative viability (NCI-H1993; first compound 1.265 µM): 0.974
- relative viability (NCI-H2009; first compound 0.04 µM): 0.679
- relative viability (NCI-H2009; first compound 0.1265 µM): 0.708
- relative viability (NCI-H2009; first compound 0.4 µM): 0.653
- relative viability (NCI-H2009; first compound 1.265 µM): 0.568
- relative viability (NCI-H2170; first compound 0.04 µM): 0.632
- relative viability (NCI-H2170; first compound 0.1265 µM): 0.606
- relative viability (NCI-H2170; first compound 0.4 µM): 0.569
- relative viability (NCI-H2170; first compound 1.265 µM): 0.468
- relative viability (NCI-H2228; first compound 0.04 µM): 0.728
- relative viability (NCI-H2228; first compound 0.1265 µM): 0.645
- relative viability (NCI-H2228; first compound 0.4 µM): 0.626
- relative viability (NCI-H2228; first compound 1.265 µM): 0.309
- relative viability (NCI-H3122; first compound 0.04 µM): 0.654
- relative viability (NCI-H3122; first compound 0.1265 µM): 0.666
- relative viability (NCI-H3122; first compound 0.4 µM): 0.602
- relative viability (NCI-H3122; first compound 1.265 µM): 0.617
- relative viability (NCI-H596; first compound 0.04 µM): 0.711
- relative viability (NCI-H596; first compound 0.1265 µM): 0.745
- relative viability (NCI-H596; first compound 0.4 µM): 0.749
- relative viability (NCI-H596; first compound 1.265 µM): 0.607
- relative viability (NCI-H727; first compound 0.04 µM): 0.629
- relative viability (NCI-H727; first compound 0.1265 µM): 0.713
- relative viability (NCI-H727; first compound 0.4 µM): 0.633
- relative viability (NCI-H727; first compound 1.265 µM): 0.563
- relative viability (PC-3 [JPC-3]; first compound 0.04 µM): 1.07
- relative viability (PC-3 [JPC-3]; first compound 0.1265 µM): 1.07
- relative viability (PC-3 [JPC-3]; first compound 0.4 µM): 1.15
- relative viability (PC-3 [JPC-3]; first compound 1.265 µM): 0.919
- relative viability (SK-LU-1; first compound 0.04 µM): 0.457
- relative viability (SK-LU-1; first compound 0.1265 µM): 0.459
- relative viability (SK-LU-1; first compound 0.4 µM): 0.512
- relative viability (SK-LU-1; first compound 1.265 µM): 0.318
- relative viability (SK-MES-1; first compound 0.04 µM): 0.716
- relative viability (SK-MES-1; first compound 0.1265 µM): 0.687
- relative viability (SK-MES-1; first compound 0.4 µM): 0.58
- relative viability (SK-MES-1; first compound 1.265 µM): 0.286
- relative viability (SW 1573; first compound 0.04 µM): 0.527
- relative viability (SW 1573; first compound 0.1265 µM): 0.528
- relative viability (SW 1573; first compound 0.4 µM): 0.427
- relative viability (SW 1573; first compound 1.265 µM): 0.341
- relative viability (SW 900; first compound 0.04 µM): 0.768
- relative viability (SW 900; first compound 0.1265 µM): 1.04
- relative viability (SW 900; first compound 0.4 µM): 0.702
- relative viability (SW 900; first compound 1.265 µM): 0.475
